Measured values published in patent publication US20180244611A1, “Modulators of the Cystic Fibrosis Transmembrane Conductance Regulator Protein and Methods of Use” (AbbVie S.à.r.l., priority 2017, published 2018).

Columns and labels:
[1] = target: T1, F508delCFTR (Homo sapiens, UniProt P13569, DEL508-508); test: Cell Surface Expression-Horse Radish Peroxidase (CSE-HRP) assay, test compound without co-corrector; format: cell-based; details: for Emax: maximum at any tested concentration, without co-corrector; for EC50: test compound without co-corrector;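 as to Emax: percent of on-plate 2 µM positive control corrector response over DMSO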
T1 construct: expressed in transfected cells; host or cells: CFBE41o- human lung-derived epithelial cells (CFBE41o-F508delCFTR-HRP), doxycycline-inducible
T1 sequence (P13569 with tags, fused parts or gaps DEL508-508): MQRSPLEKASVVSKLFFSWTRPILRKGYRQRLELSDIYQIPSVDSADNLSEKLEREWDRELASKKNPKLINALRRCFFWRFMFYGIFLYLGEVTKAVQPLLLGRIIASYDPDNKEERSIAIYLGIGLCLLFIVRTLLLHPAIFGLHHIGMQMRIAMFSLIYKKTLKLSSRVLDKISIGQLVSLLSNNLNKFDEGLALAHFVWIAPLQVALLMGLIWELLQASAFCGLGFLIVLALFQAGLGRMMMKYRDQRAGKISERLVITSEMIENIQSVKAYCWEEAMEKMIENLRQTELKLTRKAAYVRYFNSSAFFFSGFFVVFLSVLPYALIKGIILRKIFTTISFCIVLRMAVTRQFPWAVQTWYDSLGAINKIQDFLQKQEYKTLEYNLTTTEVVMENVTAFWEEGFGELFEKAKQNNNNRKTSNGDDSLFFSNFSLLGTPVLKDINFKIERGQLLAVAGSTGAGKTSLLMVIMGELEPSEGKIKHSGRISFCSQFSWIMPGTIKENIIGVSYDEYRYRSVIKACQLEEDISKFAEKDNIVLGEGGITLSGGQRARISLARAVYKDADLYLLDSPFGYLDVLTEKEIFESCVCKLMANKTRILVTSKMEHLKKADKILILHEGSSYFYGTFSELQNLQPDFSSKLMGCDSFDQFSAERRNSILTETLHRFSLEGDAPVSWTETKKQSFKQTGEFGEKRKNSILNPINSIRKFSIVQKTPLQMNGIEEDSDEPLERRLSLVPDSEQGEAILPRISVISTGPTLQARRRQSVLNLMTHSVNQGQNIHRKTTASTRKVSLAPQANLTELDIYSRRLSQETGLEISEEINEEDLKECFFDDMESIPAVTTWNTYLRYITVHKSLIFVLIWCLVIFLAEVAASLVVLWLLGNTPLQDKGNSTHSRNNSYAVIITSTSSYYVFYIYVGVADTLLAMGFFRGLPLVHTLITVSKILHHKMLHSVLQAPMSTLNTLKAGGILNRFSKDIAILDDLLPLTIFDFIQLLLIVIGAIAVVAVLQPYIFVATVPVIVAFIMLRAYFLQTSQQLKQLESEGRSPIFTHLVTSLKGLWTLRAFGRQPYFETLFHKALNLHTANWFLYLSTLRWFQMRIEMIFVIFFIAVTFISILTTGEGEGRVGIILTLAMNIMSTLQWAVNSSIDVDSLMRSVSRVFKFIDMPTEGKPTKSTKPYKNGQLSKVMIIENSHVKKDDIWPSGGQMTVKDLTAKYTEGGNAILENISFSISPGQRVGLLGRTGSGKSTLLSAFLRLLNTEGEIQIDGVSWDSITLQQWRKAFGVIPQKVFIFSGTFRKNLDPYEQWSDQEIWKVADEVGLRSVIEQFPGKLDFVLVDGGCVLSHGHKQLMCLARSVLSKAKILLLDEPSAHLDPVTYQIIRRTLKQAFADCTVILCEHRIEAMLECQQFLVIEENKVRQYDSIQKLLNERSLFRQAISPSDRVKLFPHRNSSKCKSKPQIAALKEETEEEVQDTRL
Outline: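 Compound without co-corrector was tested at eight 3-fold concentrations, top 20 μM, for 18-24 h at 33° C on doxycycline-induced (0.5 μg/mL, 72 h) CFBE41o- F508delCFTR-HRP cells. After DPBS washes, luminol luminescence gave % activity relative to on-plate positive control minus DMSO; EC50 came from triplicate-plate sigmoidal fitting.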

[2] = target: T1, F508delCFTR; test: Cell Surface Expression-Horse Radish Peroxidase (CSE-HRP) assay, test compound with co-corrector; format: cell-based; details: for Maximum % activity (with co-corrector): maximum at any tested concentration;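 as to Maximum % activity (with co-corrector): percent of 2 µM positive control corrector over DMSO; co-corrector is that same compound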
Outline: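 Surface-expression read-out: luminol luminescence from an HRP tag in the fourth exofacial loop of F508delCFTR, in doxycycline-induced (0.5 μg/mL, 72 h) CFBE41o- cells. Compound plus 2 μM co-corrector added for 18-24 h at 33° C., 8-point 3-fold series up to 20 μM. EC50 from a sigmoidal fit with variable Hill slope, normalised to positive control, triplicate plates.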

[3] = normalized to positive control, with 2 μM co-corrector
[4] = normalized to on-plate positive control
[5] = CSE-HRP assay, test compound with 2 μM co-corrector
[6] = normalized to on-plate positive control, with 2 μM co-corrector

| SMILES | Emax ([1]; normalized to positive control) [%] | EC50 [1] [µM] | Maximum % activity (with co-corrector) [2, 3] | EC50 ([2]; with 2 μM co-corrector) [µM] | EC50 ([1]; CSE-HRP assay) [µM] | Emax [1, 4] [%] | EC50 [2, 5] [µM] | Maximum % activity (with co-corrector) [2, 6] |
| --- | --- | --- | --- | --- | --- | --- | --- | --- |
| COc1cccc2c1CCC2C(=O)NS(=O)(=O)c1ncccc1C(=O)N(C)C (stereo not shown) [III-82] | < 50 | ≥ 10 | + (<150) | ≥ 10 |  |  |  |  |
| COc1cccc2c1CCC2C(=O)NS(=O)(=O)c1cccnc1C#N (stereo not shown) [III-83] | < 50 | ≥ 10 | + (<150) | ≥ 10 |  |  |  |  |
| COc1cccc2c1CCC2C(=O)NS(=O)(=O)c1ccccn1 (stereo not shown) [III-84] | < 50 | ≥ 10 | + (<150) | ≥ 10 |  |  |  |  |
| COc1ccc(-c2cccc3c2CCC3C(=O)NS(=O)(=O)c2ccccc2C)cn1 (stereo not shown) [III-85] | < 50 | ≥ 10 | ++ (≥150 and <350) | 3 to 10 |  |  |  |  |
| Cc1ccccc1S(=O)(=O)NC(=O)C1CCc2c(-c3ccc(N4CCCCC4)nc3)cccc21 (stereo not shown) [III-86] | 50 to 150 | 3 to 10 | ++ (≥150 and <350) | < 3 |  |  |  |  |
| Cc1ccccc1S(=O)(=O)NC(=O)C1CCc2c(-c3ccc(N4CCN(C)CC4)nc3)cccc21 (stereo not shown) [III-87] | < 50 | ≥ 10 | + (<150) | ≥ 10 |  |  |  |  |
| Cc1ccccc1S(=O)(=O)NC(=O)C1CCc2c(-c3cccnc3C)cccc21 (stereo not shown) [III-88] | < 50 | ≥ 10 | + (<150) | ≥ 10 |  |  |  |  |
| Cc1ccccc1S(=O)(=O)NC(=O)C1CCc2c(-c3ccc(F)nc3)cccc21 (stereo not shown) [III-89] | < 50 | ≥ 10 | ++ (≥150 and <350) | 3 to 10 |  |  |  |  |
| Cc1ccccc1S(=O)(=O)NC(=O)C1CCc2c(-c3ccc(N(C)C)nc3)cccc21 (stereo not shown) [III-90] | < 50 | ≥ 10 | + (<150) | ≥ 10 |  |  |  |  |
| Cc1ccccc1S(=O)(=O)NC(=O)C1CCc2c(-c3cnn(C)c3)cccc21 (stereo not shown) [III-102] |  |  |  |  | ≥ 10 | < 50 | ≥ 10 | + (<150) |
| Cc1ccc(-c2cccc3c2CCC3C(=O)NS(=O)(=O)c2ccccc2C)o1 (stereo not shown) [III-103] |  |  |  |  | ≥ 10 | < 50 | 3 to 10 | ++ (≥150 and <350) |
| Cc1ccccc1S(=O)(=O)NC(=O)C1CCc2c(-c3c(C)nn(C)c3C)cccc21 (stereo not shown) [III-105] |  |  |  |  | ≥ 10 | < 50 | ≥ 10 | + (<150) |
| Cc1ccccc1S(=O)(=O)NC(=O)C1CCc2c(-c3ccnn3C)cccc21 (stereo not shown) [III-106] |  |  |  |  | ≥ 10 | < 50 | ≥ 10 | + (<150) |
| COc1cccc2c1CCC[C@H]2C(=O)NS(=O)(=O)c1cccc(N)n1 [III-109] |  |  |  |  | ≥ 10 | < 50 | ≥ 10 | + (<150) |
| Nc1cccc(S(=O)(=O)NC(=O)C2CCCc3cccc(Cl)c32)n1 (stereo not shown) [III-110] |  |  |  |  | ≥ 10 | < 50 | ≥ 10 | + (<150) |
| CCC1(C(=O)NS(=O)(=O)c2ccc(Cl)cc2Cl)CCc2c(Cl)cccc21 (stereo not shown) [III-113] |  |  |  |  | ≥ 10 | < 50 | < 3 | ++ (≥150 and <350) |
| CCC1(C(=O)NS(=O)(=O)c2cc(Cl)ccc2Cl)CCc2c(Cl)cccc21 (stereo not shown) [III-116] |  |  |  |  | ≥ 10 | < 50 | ≥ 10 | + (<150) |
| CCC1(C(=O)NS(=O)(=O)c2cc(C)ccc2Cl)CCc2c(Cl)cccc21 (stereo not shown) [III-118] |  |  |  |  | ≥ 10 | < 50 | ≥ 10 | + (<150) |
| CCC1(C(=O)NS(=O)(=O)c2ccc(OC(F)(F)F)cc2)CCc2c(Cl)cccc21 (stereo not shown) [III-119] |  |  |  |  | ≥ 10 | < 50 | 3 to 10 | + (<150) |
| CCC1(C(=O)NS(=O)(=O)c2ccccc2C#N)CCc2c(Cl)cccc21 (stereo not shown) [III-120] |  |  |  |  | ≥ 10 | < 50 | ≥ 10 | + (<150) |
| CCC1(C(=O)NS(=O)(=O)c2c(OC)cccc2OC)CCc2c(Cl)cccc21 (stereo not shown) [III-121] |  |  |  |  | ≥ 10 | < 50 | ≥ 10 | + (<150) |
| CCC1(C(=O)NS(=O)(=O)c2ccccc2C(F)(F)F)CCc2c(Cl)cccc21 (stereo not shown) [III-122] |  |  |  |  | ≥ 10 | < 50 | ≥ 10 | + (<150) |
| CCC1(C(=O)NS(=O)(=O)c2ccc3c(c2)OCCO3)CCc2c(Cl)cccc21 (stereo not shown) [III-123] |  |  |  |  | ≥ 10 | < 50 | 3 to 10 | ++ (≥150 and <350) |
| CCC1(C(=O)NS(=O)(=O)c2c(C)cccc2Cl)CCc2c(Cl)cccc21 (stereo not shown) [III-124] |  |  |  |  | ≥ 10 | < 50 | ≥ 10 | + (<150) |
| CCC1(C(=O)NS(=O)(=O)c2c(C)cccc2C(F)(F)F)CCc2c(Cl)cccc21 (stereo not shown) [III-126] |  |  |  |  | ≥ 10 | < 50 | ≥ 10 | + (<150) |
| CCC1(C(=O)NS(=O)(=O)c2cccc(F)c2C#N)CCc2c(Cl)cccc21 (stereo not shown) [III-127] |  |  |  |  | ≥ 10 | < 50 | ≥ 10 | + (<150) |

The remaining lines, values ahead:

| Emax ([1]; normalized to positive control) [%] | EC50 [1] [µM] | Maximum % activity (with co-corrector) [2, 3] | EC50 ([2]; with 2 μM co-corrector) [µM] | EC50 ([1]; CSE-HRP assay) [µM] | Emax [1, 4] [%] | EC50 [2, 5] [µM] | Maximum % activity (with co-corrector) [2, 6] | SMILES |
| --- | --- | --- | --- | --- | --- | --- | --- | --- |
|  |  |  |  | ≥ 10 | < 50 | ≥ 10 | + (<150) | Cc1ccccc1S(=O)(=O)NC(=O)C1CCc2c(-c3cncc(F)c3)cccc21 (stereo not shown) [III-91] |
|  |  |  |  | ≥ 10 | < 50 | ≥ 10 | + (<150) | Cc1cncc(-c2cccc3c2CCC3C(=O)NS(=O)(=O)c2ccccc2C)c1 (stereo not shown) [III-92] |
|  |  |  |  | ≥ 10 | < 50 | 3 to 10 | ++ (≥150 and <350) | Cc1ccccc1S(=O)(=O)NC(=O)C1CCc2c(-c3ccnc(F)c3)cccc21 (stereo not shown) [III-93] |
|  |  |  |  | ≥ 10 | < 50 | 3 to 10 | ++ (≥150 and <350) | Cc1ccccc1S(=O)(=O)NC(=O)C1CCc2c(-c3ccncc3F)cccc21 (stereo not shown) [III-94] |
|  |  |  |  | ≥ 10 | < 50 | ≥ 10 | + (<150) | Cc1cnccc1-c1cccc2c1CCC2C(=O)NS(=O)(=O)c1ccccc1C (stereo not shown) [III-95] |
|  |  |  |  | ≥ 10 | < 50 | ≥ 10 | + (<150) | Cc1cc(-c2cccc3c2CCC3C(=O)NS(=O)(=O)c2ccccc2C)ccn1 (stereo not shown) [III-96] |
|  |  |  |  | ≥ 10 | < 50 | ≥ 10 | + (<150) | Cc1ccccc1S(=O)(=O)NC(=O)C1CCc2c(-c3cn[nH]c3)cccc21 (stereo not shown) [III-97] |
|  |  |  |  | ≥ 10 | < 50 | ≥ 10 | + (<150) | Cc1ccccc1S(=O)(=O)NC(=O)C1CCc2c(-c3ccn[nH]3)cccc21 (stereo not shown) [III-98] |
|  |  |  |  | 3 to 10 | 50 to 150 | 3 to 10 | +++ (≥350) | Cc1ccccc1S(=O)(=O)NC(=O)C1CCc2c(-c3ccsc3)cccc21 (stereo not shown) [III-99] |
|  |  |  |  | ≥ 10 | < 50 | 3 to 10 | + (<150) | Cc1ccccc1S(=O)(=O)NC(=O)C1CCc2c(-c3ccc(N4CCOCC4)nc3)cccc21 (stereo not shown) [III-100] |
|  |  |  |  | ≥ 10 | < 50 | ≥ 10 | + (<150) | Cc1ccccc1S(=O)(=O)NC(=O)C1CCc2c(-c3c[nH]nc3C)cccc21 (stereo not shown) [III-101] |
|  |  |  |  | 3 to 10 | 50 to 150 | 3 to 10 | +++ (≥350) | COc1cccc2c1CCC[C@H]2C(=O)NS(=O)(=O)c1cccnc1N [III-107] |
|  |  |  |  | 3 to 10 | 50 to 150 | 3 to 10 | ++ (≥150 and <350) | Cc1ccc2c(c1)CCC2(C)C(=O)NS(=O)(=O)c1cccc(N)n1 (stereo not shown) [III-108] |
|  |  |  |  | 3 to 10 | < 50 | < 3 | ++ (≥150 and <350) | CCC1(C(=O)NS(=O)(=O)c2ccc(C)cc2C)CCc2c(Cl)cccc21 (stereo not shown) [III-114] |
|  |  |  |  | < 3 | < 50 | < 3 | ++ (≥150 and <350) | CCC1(C(=O)NS(=O)(=O)c2c(F)cccc2F)CCc2c(Cl)cccc21 (stereo not shown) [III-115] |
|  |  |  |  | 3 to 10 | < 50 | < 3 | ++ (≥150 and <350) | CCC1(C(=O)NS(=O)(=O)c2cccc(Cl)c2)CCc2c(Cl)cccc21 (stereo not shown) [III-117] |
|  |  |  |  | 3 to 10 | < 50 | 3 to 10 | ++ (≥150 and <350) | CCC1(C(=O)NS(=O)(=O)c2ccc(Cl)cc2)CCc2c(Cl)cccc21 (stereo not shown) [III-125] |
